Patent US8829034B2, “Compounds which modulate the CB2 receptor” (Boehringer Ingerlheim International GmbH, priority 2006, dated 2014)
pEC50: −log10 of the molar value. Where two headings read alike, the source gives them in different places.

Target: T1, human CB2R (Homo sapiens, UniProt P34972)
T1 construct: host or cells: CHO cells
Experiment: CB2R mediated modulation of cAMP synthesis
Type: cell-based
Details: for agonistic activity: found through the use of the above described assays
Method: B. CB2R Mediated Modulation of cAMP Synthesis:
CHO cells expressing human CB2R (Euroscreen) were plated at a density of 5000 cells per well in 384 well plates and incubated overnight at 37° C. After removing the media, the cells were treated with test compounds diluted in stimulation buffer containing 1 mM IBMX, 0.25% BSA and 10 uM Forskolin. The assay was incubated for 30 minutes at 37° C. Cells were lysed and the cAMP concentration was measured using DiscoverX-XS cAMP kit, following the manufacturer's protocol. In this setting, agonists will decrease forskolin induced production of cAMP while inverse agonists will further increase forskolin induced production of cAMP. EC50 of agonists were calculated as follows. The maximal amount of cAMP produced by forskolin compared to the level of cAMP inhibited by 1 uM CP55940 is defined as 100%. The EC50 value of each test compound was determined as the concentration at which 50% of the forskolin-stimulated cAMP synthesis was inhibited. Data was analyzed using a four-parameter logistic model. (Model 205 of XLfit 4.0).

T1 sequence (P34972 whole entry): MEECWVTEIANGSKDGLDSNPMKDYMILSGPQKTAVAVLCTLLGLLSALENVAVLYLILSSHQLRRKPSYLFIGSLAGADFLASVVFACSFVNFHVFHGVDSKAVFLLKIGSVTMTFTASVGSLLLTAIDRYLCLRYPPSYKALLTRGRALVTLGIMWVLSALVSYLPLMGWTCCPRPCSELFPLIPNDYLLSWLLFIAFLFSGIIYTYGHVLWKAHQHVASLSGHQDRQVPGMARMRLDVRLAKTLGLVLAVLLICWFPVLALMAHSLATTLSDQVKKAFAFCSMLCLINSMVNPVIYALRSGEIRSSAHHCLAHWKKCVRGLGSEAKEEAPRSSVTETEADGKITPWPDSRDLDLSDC

| Compound | pEC50 | agonistic activity | pEC50 (CHO cells expressing human CB2R, inhibition of forskolin-stimulated cAMP synthesis, compounds having agonist activity, read-out: CB2 EC50) |
| --- | --- | --- | --- |
| CCc1sc(NC(=O)C(C)(C)S(=O)(=O)CC2CCOCC2)nc1-c1ccccc1 [N-(5-Ethyl-4-phenyl-thiazol-2-yl)-2-methyl-2-(tetrahydro-pyran-4-ylmethanesulfonyl)-propionamide] | 8.70 | agonistic activity |  |
| CC(C)(C)c1cc(NC(=O)C(C)(C)S(=O)(=O)CC2CCOCC2)no1 [N-(5-tert-Butyl-isoxazol-3-yl)-2-methyl-2-(tetrahydro-pyran-4-ylmethanesulfonyl)-propionamide] |  | agonistic activity |  |
| CCC(C)c1cc(NC(=O)C(C)(C)S(=O)(=O)CC2CCOCC2)on1 (centres unmarked) [N-(3-sec-Butyl-isoxazol-5-yl)-2-methyl-2-(tetrahydro-pyran-4-ylmethanesulfonyl)-propionamide] | 7.70 | agonistic activity |  |
| CCCS(=O)(=O)C(C)(C)C(=O)Nc1cc(-c2ccccc2)nn1C [2-Methyl-N-(2-methyl-5-phenyl-2H-pyrazol-3-yl)-2-(propane-1-sulfonyl)-propionamide] |  | agonistic activity |  |
| CC(C)S(=O)(=O)C(C)(C)C(=O)Nc1cc(-c2ccccc2)nn1C [2-Methyl-N-(2-methyl-5-phenyl-2H-pyrazol-3-yl)-2-(propane-2-sulfonyl)-propionamide] |  | agonistic activity |  |
| CC(C)S(=O)(=O)C(C)(C)C(=O)Nc1nc2c(s1)CCCC2 [2-Methyl-2-(propane-2-sulfonyl)-N-(4,5,6,7-tetrahydro-benzothiazol-2-yl)-propionamide] |  | agonistic activity |  |
| Cc1sc(NC(=O)C(C)(C)S(=O)(=O)CC2CCOCC2)nc1-c1ccccc1 [2-Methyl-N-(5-methyl-4-phenyl-thiazol-2-yl)-2-(tetrahydro-pyran-4-ylmethanesulfonyl)-propionamide] | 8.60 | agonistic activity |  |
| CC(C)(C(=O)Nc1ccc2ccccc2n1)S(=O)(=O)CC1CCOCC1 [2-Methyl-N-quinolin-2-yl-2-(tetrahydro-pyran-4-ylmethanesulfonyl)-propionamide] | 8.24 | agonistic activity |  |
| CCC(C)S(=O)(=O)C(C)(C)C(=O)Nc1cc(C(C)(C)C)on1 (centres unmarked) [2-(Butane-2-sulfonyl)-N-(5-tert-butyl-isoxazol-3-yl)-2-methyl-propionamide] |  | agonistic activity | 7.73 |
| Cn1nc(C(C)(C)C)cc1NC(=O)C(C)(C)S(=O)(=O)CC1CCCO1 (centres unmarked) [N-(5-tert-Butyl-2-methyl-2H-pyrazol-3-yl)-2-methyl-2-(tetrahydro-furan-2-ylmethanesulfonyl)-propionamide] |  | agonistic activity |  |
| CC(C)c1cc(NC(=O)C(C)(C)S(=O)(=O)CC2CCOCC2)n(C)n1 [N-(5-Isopropyl-2-methyl-2H-pyrazol-3-yl)-2-methyl-2-(tetrahydro-pyran-4-ylmethanesulfonyl)-propionamide] |  | agonistic activity |  |
| CC(C)(C(=O)Nc1ccc(C(F)(F)F)cn1)S(=O)(=O)C1CCCCC1 [2-Cyclohexanesulfonyl-2-methyl-N-(5-trifluoromethyl-pyridin-2-yl)-propionamide] | 7.93 | agonistic activity |  |
| CCCS(=O)(=O)C(C)(C)C(=O)Nc1cc(C(C)(C)C)nn1C [N-(5-tert-Butyl-2-methyl-2H-pyrazol-3-yl)-2-methyl-2-(propane-1-sulfonyl)-propionamide] |  | agonistic activity |  |
| CC(C)(C(=O)Nc1ccc(C(F)(F)F)cn1)S(=O)(=O)CC1CCC1 [2-Cyclobutylmethanesulfonyl-2-methyl-N-(5-trifluoromethyl-pyridin-2-yl)-propionamide] |  | agonistic activity |  |
| CC(C)S(=O)(=O)C(C)(C)C(=O)Nc1ccc2ccccc2n1 [2-Methyl-2-(propane-2-sulfonyl)-N-quinolin-2-yl-propionamide] |  | agonistic activity |  |
| CC(C)(C)c1cc(NC(=O)C(C)(C)S(=O)(=O)CC#N)no1 [N-(5-tert-Butyl-isoxazol-3-yl)-2-cyanomethanesulfonyl-2-methyl-propionamide] |  | agonistic activity |  |
| CC(C)(C)c1cc(NC(=O)C(C)(C)S(=O)(=O)CC2CCCO2)no1 (centres unmarked) [N-(5-tert-Butyl-isoxazol-3-yl)-2-methyl-2-(tetrahydro-furan-2-ylmethanesulfonyl)-propionamide] | 7.15 | agonistic activity |  |
| CC(C)(C)c1cc(NC(=O)C(C)(C)S(=O)(=O)Cc2ccc(F)cc2)on1 [N-(3-tert-Butyl-isoxazol-5-yl)-2-(4-fluoro-phenylmethanesulfonyl)-2-methyl-propionamide] | 7.77 | agonistic activity |  |

| Compound | pEC50 | agonistic activity | pEC50 (CHO cells expressing human CB2R, inhibition of forskolin-stimulated cAMP synthesis, compounds having agonist activity, read-out: CB2 EC50) |
| --- | --- | --- | --- |
| CC(C)(C)c1cc(NC(=O)C(C)(C)S(=O)(=O)C2CCCCC2)no1 [N-(5-tert-Butyl-isoxazol-3-yl)-2-cyclohexanesulfonyl-2-methyl-propionamide] | 9.70 | agonistic activity |  |
| CC(C)(C)c1cc(NC(=O)C(C)(C)S(=O)(=O)C2CC2)no1 [N-(5-tert-Butyl-isoxazol-3-yl)-2-cyclopropanesulfonyl-2-methyl-propionamide] |  | agonistic activity |  |
| CC(C)(C(=O)Nc1ccc(C(F)(F)F)cc1)S(=O)(=O)CC1CCOCC1 [2-Methyl-2-(tetrahydro-pyran-4-ylmethanesulfonyl)-N-(4-trifluoromethyl-phenyl)-propionamide] |  | agonistic activity |  |
| Cc1c(-c2ccccc2)nn(C)c1NC(=O)C(C)(C)S(=O)(=O)CC1CCOCC1 [N-(2,4-Dimethyl-5-phenyl-2H-pyrazol-3-yl)-2-methyl-2-(tetrahydro-pyran-4-ylmethanesulfonyl)-propionamide] |  | agonistic activity |  |
| CC(C)(C(=O)Nc1cccc(C(F)(F)F)n1)S(=O)(=O)CC1CCOCC1 [2-Methyl-2-(tetrahydro-pyran-4-ylmethanesulfonyl)-N-(6-trifluoromethyl-pyridin-2-yl)-propionamide] |  | agonistic activity |  |
| Cn1nc(C(C)(C)C)cc1NC(=O)C(C)(C)S(=O)(=O)CC1CCC1 [N-(5-tert-Butyl-2-methyl-2H-pyrazol-3-yl)-2-cyclobutylmethanesulfonyl-2-methyl-propionamide] | 7.48 | agonistic activity |  |
| CC(C)(C)c1cc(NC(=O)C(C)(C)S(=O)(=O)C2CCCC2)no1 [N-(5-tert-Butyl-isoxazol-3-yl)-2-cyclopentanesulfonyl-2-methyl-propionamide] | 8.62 | agonistic activity |  |
| CC(C)(C(=O)Nc1nc(-c2ccccn2)cs1)S(=O)(=O)CC1CCOCC1 [2-Methyl-N-(4-pyridin-2-yl-thiazol-2-yl)-2-(tetrahydro-pyran-4-ylmethanesulfonyl)-propionamide] |  | agonistic activity |  |
| CCCS(=O)(=O)C(C)(C)C(=O)Nc1cc(-c2cccs2)nn1C [2-Methyl-N-(2-methyl-5-thiophen-2-yl-2H-pyrazol-3-yl)-2-(propane-1-sulfonyl)-propionamide] |  | agonistic activity |  |
| CC(C)(C(=O)Nc1nc(-c2cccnc2)cs1)S(=O)(=O)CC1CCOCC1 [2-Methyl-N-(4-pyridin-3-yl-thiazol-2-yl)-2-(tetrahydro-pyran-4-ylmethanesulfonyl)-propionamide] |  | agonistic activity |  |
| CC(C)S(=O)(=O)C(C)(C)C(=O)Nc1cc(C(C)(C)C)no1 [N-(3-tert-Butyl-isoxazol-5-yl)-2-methyl-2-(propane-2-sulfonyl)-propionamide] |  | agonistic activity |  |
| CC(C)(C(=O)Nc1cccc2ccccc12)S(=O)(=O)CC1CCOCC1 [2-Methyl-N-naphthalen-1-yl-2-(tetrahydro-pyran-4-ylmethanesulfonyl)-propionamide] |  | agonistic activity |  |
| CCCS(=O)(=O)C(C)(C)C(=O)Nc1nc(-c2ccncc2)cs1 [2-Methyl-2-(propane-1-sulfonyl)-N-(4-pyridin-4-yl-thiazol-2-yl)-propionamide] |  | agonistic activity |  |
| CCC(C)S(=O)(=O)C(C)(C)C(=O)Nc1ccc(C(F)(F)F)cn1 (centres unmarked) [2-(Butane-2-sulfonyl)-2-methyl-N-(5-trifluoromethyl-pyridin-2-yl)-propionamide] |  | agonistic activity |  |
| CC(C)(C(=O)Nc1nc(C2CC2)cs1)S(=O)(=O)CC1CCOCC1 [N-(4-Cyclopropyl-thiazol-2-yl)-2-methyl-2-(tetrahydro-pyran-4-ylmethanesulfonyl)-propionamide] |  | agonistic activity |  |
| CC(C)(C(=O)Nc1cc2ccccc2cn1)S(=O)(=O)CC1CCOCC1 [N-Isoquinolin-3-yl-2-methyl-2-(tetrahydro-pyran-4-ylmethanesulfonyl)-propionamide] | 7.00 | agonistic activity |  |
| CC(C)CCS(=O)(=O)C(C)(C)C(=O)Nc1ccc(C(F)(F)F)cn1 [2-Methyl-2-(3-methyl-butane-1-sulfonyl)-N-(5-trifluoromethyl-pyridin-2-yl)-propionamide] | 7.70 | agonistic activity |  |
| CC(C)(C)c1cc(NC(=O)C(C)(C)S(=O)(=O)Cc2ccc(Cl)cc2)no1 [N-(5-tert-Butyl-isoxazol-3-yl)-2-(4-chloro-phenylmethanesulfonyl)-2-methyl-propionamide] | 7.78 | agonistic activity |  |
